Measurements published in DBAASP.
Converted amounts (≈) assume the structure as drawn. “And” between values parts separate entries of the source, which are not always exact repeats. Equal entries are not always repeated. Blank lines part the entries; values can stand above or below the compound they belong to.

Columns and labels:
Test in all cases: ≥ marks a high value that may be exact or a test limit, other limits are often not marked, values filed in µg/mL are converted to µM
[1] = test system: Escherichia coli NBRC 14237
[2] = test system: Saccharomyces cerevisiae NBRC 10217
[3] = test system: Staphylococcus aureus NBRC 12732
[4] = test system: Micrococcus luteus NBRC 12708
[5] = test system: Escherichia coli ESBL 63103
[6] = test system: Staphylococcus aureus ATCC 25923
[7] = test system: Pseudomonas aeruginosa 213
[8] = test system: Enterococcus faecium mic80
[9] = test system: Pseudomonas aeruginosa LES400
[10] = test system: Pseudomonas aeruginosa H103
[11] = test system: Staphylococcus aureus C623
[12] = test system: Candida albicans C627
[13] = test system: Staphylococcus aureus CMCC 26003
[14] = test system: Listeria monocytogenes CVCC 1599
[15] = test system: Escherichia coli CVCC 245
[16] = test system: Escherichia coli K88
[17] = test system: Micrococcus luteus CVCC 28001
[18] = test system: Staphylococcus xylosus
[19] = test system: Escherichia coli DH5alpha
[20] = test system: Listeria ivanovii
[21] = test system: Enterococcus faecalis ATCC 29212
[22] = test system: Pseudomonas aeruginosa ATCC 27853
[23] = test system: Staphylococcus aureus ATCC BAA-44
[24] = test system: Candida parapsilosis ATCC 22019
[25] = test system: Candida albicans ATCC 90028
[26] = test system: Escherichia coli ATCC 25922
[27] = test system: Acinetobacter baumannii ATCC 19606
[28] = test system: Klebsiella pneumoniae ATCC 13883
[29] = test system: Bacillus subtilis CMCC 63501
[30] = test system: Salmonella typhimurium ATCC 7731
[31] = test system: Salmonella enterica subsp. enterica serovar Pullorum C79-13
[32] = test system: Pseudomonas aeruginosa PAO1
[33] = test system: Salmonella enterica subsp. enterica serovar Typhimurium C77-31
[34] = test system: Staphylococcus epidermidis ATCC 12228
[35] = test system: Staphylococcus aureus ATCC 29213
[36] = test system: Escherichia coli UB1005
[37] = test system: Salmonella enterica subsp. enterica serovar Typhimurium ATCC 14028
[38] = test system: Enterococcus faecium ATCC 700221
[39] = test system: Staphylococcus epidermidis ATCC 35984
[40] = test system: Klebsiella pneumoniae ATCC 700603
[41] = test system: Candida tropicalis ATCC 13803
[42] = test system: Candida krusei ATCC 6258
[43] = test system: Candida glabrata ATCC 15126
[44] = test system: Candida albicans SC5314

SMILES: CC[C@H](C)[C@H](NC(=O)[C@H](CC(C)C)NC(=O)[C@@H]1CCCN1C(=O)[C@H](CC(C)C)NC(=O)[C@H](CCCCN)NC(=O)[C@H](CCCCN)NC(=O)[C@H](CC(C)C)NC(=O)[C@H](CC(C)C)NC(=O)[C@H](C)NC(=O)[C@@H](NC(=O)[C@H](Cc1ccccc1)NC(=O)CN)C(C)C)C(=O)N[C@@H](CC(C)C)C(=O)N[C@@H](CCCCN)C(=O)N[C@@H](Cc1cnc[nH]1)C(=O)N[C@@H](CC(C)C)C(=O)N1CCC[C@H]1C(N)=O [GFVALLKKLPLILKHLP]
MIC [1]: 3.12 µM (≈ 5.93 µg/mL)
MIC [2]: 25 µM (≈ 47.5 µg/mL)
MIC [3]: 3.12 µM (≈ 5.93 µg/mL)
MIC [4]: 6.25 µM (≈ 11.9 µg/mL)

SMILES: CC[C@H](C)[C@H](N)C(=O)N[C@@H](Cc1c[nH]c2ccccc12)C(=O)N[C@@H](CCCCN)C(=O)N[C@@H](CCCN=C(N)N)C(=O)N[C@@H](Cc1c[nH]c2ccccc12)C(=O)N[C@@H](Cc1c[nH]c2ccccc12)C(=O)N[C@@H](Cc1c[nH]c2ccccc12)C(=O)N[C@@H](CCCCN)C(=O)N[C@@H](CCCN=C(N)N)C(=O)O [IWKRWWWKR]
MIC [5]: ≥ 44.3 µM
MIC [6]: 88.6 µM (≈ 128 µg/mL)
MIC [7]: ≥ 88.6 µM
MIC [8]: ≥ 88.6 µM
MIC [9]: ≥ 88.6 µM
MIC [10]: ≥ 88.6 µM
MIC [11]: ≥ 44.3 µM
MIC [12]: 22.1 µM (≈ 32 µg/mL)

SMILES: CC(C)C[C@H](NC(=O)[C@H](CCCN=C(N)N)NC(=O)CNC(=O)[C@H](Cc1ccccc1)NC(=O)[C@@H](N)Cc1ccccc1)C(=O)N[C@@H](CCCCN)C(=O)N[C@@H](CO)C(=O)N[C@H](C(=O)N[C@@H](Cc1c[nH]c2ccccc12)C(=O)N[C@@H](CO)C(=O)N[C@@H](C)C(=O)N[C@H](C(=O)N[C@@H](CCCCN)C(=O)N[C@@H](Cc1cnc[nH]1)C(=O)NCC(=O)N[C@@H](Cc1c[nH]c2ccccc12)C(=O)N[C@@H](CCCCN)C(=O)N[C@@H](C)C(=O)N[C@@H](C)C(=O)N[C@@H](CCCCN)C(=O)N[C@@H](CO)C(=O)N[C@@H](CCCN=C(N)N)C(=O)O)C(C)C)C(C)C [FFGRLKSVWSAVKHGWKAAKSR]
MIC [20]: 3 µM (≈ 7.64 µg/mL)
MIC [21]: 12.5 µM (≈ 31.8 µg/mL)
MIC [22]: 6 µM (≈ 15.3 µg/mL)
MIC [23]: 3 µM (≈ 7.64 µg/mL)
MIC [6]: 3 µM (≈ 7.64 µg/mL)
MIC [24]: ≥ 50 µM
MIC [25]: 25 µM (≈ 63.7 µg/mL)
MIC [26]: 4.24 µM (≈ 10.8 µg/mL)
MIC [27]: 3 µM (≈ 7.64 µg/mL)
MIC [28]: 6 µM (≈ 15.3 µg/mL)

SMILES: CC(C)C[C@H](NC(=O)[C@H](Cc1cnc[nH]1)NC(=O)[C@H](Cc1ccc(O)cc1)NC(=O)[C@H](CCCN=C(N)N)NC(=O)[C@H](Cc1ccc(O)cc1)NC(=O)[C@H](CCCCN)NC(=O)[C@@H](N)CCCCN)C(=O)N[C@@H](CCCCN)C(=O)N1CCC[C@H]1C(=O)N[C@@H](Cc1ccccc1)C(=O)N[C@@H](CS)C(=O)N[C@@H](CCCCN)C(=O)N[C@@H](CCCCN)C(=O)O [KKYRYHLKPFCKK]
MIC [21]: 294 µM (≈ 512 µg/mL)
MIC [22]: > 294 µM
MIC [6]: 294 µM (≈ 512 µg/mL)
MIC [38]: ≥ 147 µM
MIC [39]: ≥ 73.6 µM
MIC [26]: 147 µM (≈ 256 µg/mL)
MIC [40]: > 294 µM
MIC [27]: > 294 µM

SMILES: CC(C)C[C@H](NC(=O)[C@H](CC(C)C)NC(=O)[C@H](Cc1ccc(O)cc1)NC(=O)[C@H](CCCCN)NC(=O)[C@@H](N)CS)C(=O)N[C@@H](CCCN=C(N)N)C(=O)N[C@@H](Cc1c[nH]c2ccccc12)C(=O)N[C@@H](CCCN=C(N)N)C(=O)O [CKYLLRWR]
MIC [41]: ≥ 44 µM
MIC [24]: ≥ 87.9 µM
MIC [42]: ≥ 44 µM
MIC [43]: 22 µM (≈ 25 µg/mL)
MIC [44]: ≥ 87.9 µM

Second part, the compound after the results:

MIC [13]: 2.41 µM (≈ 7 µg/mL)
MIC [14]: 0.688 µM (≈ 2 µg/mL)
MIC [6]: 0.688 µM (≈ 2 µg/mL)
MIC [15]: 2.41 µM (≈ 7 µg/mL)
MIC [16]: 2.75 µM (≈ 8 µg/mL)
MIC [17]: 5.51 µM (≈ 16 µg/mL)
SMILES: CC[C@H](C)[C@H](NC(=O)[C@H](CCCCN)NC(=O)[C@H](CCCCN)NC(=O)[C@H](Cc1ccccc1)NC(=O)[C@H](CC(C)C)NC(=O)[C@H](CCCCN)NC(=O)[C@H](Cc1c[nH]c2ccccc12)NC(=O)[C@@H](N)CCCCN)C(=O)N[C@@H](Cc1ccccc1)C(=O)N[C@@H](CCCCN)C(=O)N[C@@H](CCCN=C(N)N)C(=O)N[C@H](C(=O)N[C@H](C(=O)N[C@@H](CCC(N)=O)C(=O)N[C@@H](CCCN=C(N)N)C(=O)N[C@H](C(=O)N[C@@H](CCCCN)C(=O)N[C@@H](CC(=O)O)C(=O)N[C@@H](Cc1ccccc1)C(=O)N[C@@H](CC(C)C)C(=O)N[C@@H](CCCN=C(N)N)C(=O)N[C@@H](CC(N)=O)C(=O)O)[C@@H](C)CC)C(C)C)[C@@H](C)CC [KWKLFKKIFKRIVQRIKDFLRN]

MIC [18]: 0.5 µM (≈ 0.846 µg/mL)
MIC [19]: 4 µM (≈ 6.76 µg/mL)
SMILES: NC(N)=NCCC[C@H](NC(=O)[C@H](CCCN=C(N)N)NC(=O)[C@H](CCCN=C(N)N)NC(=O)[C@H](Cc1ccccc1)NC(=O)[C@H](Cc1ccccc1)NC(=O)[C@H](Cc1ccccc1)NC(=O)[C@H](Cc1ccccc1)NC(=O)[C@H](Cc1ccccc1)NC(=O)[C@H](CCCN=C(N)N)NC(=O)[C@H](CCCN=C(N)N)NC(=O)[C@@H](N)CCCN=C(N)N)C(=O)O [RRRFFFFFRRR]

MIC [29]: ≥ 64 µM
MIC [30]: ≥ 64 µM
MIC [21]: > 64 µM and 128 µM
MIC [31]: ≥ 128 µM
MIC [32]: > 64 µM
MIC [22]: > 64 µM and 128 µM
MIC [33]: ≥ 128 µM
MIC [26]: 64 µM and 128 µM
MIC [34]: > 64 µM and 128 µM
MIC [35]: > 64 µM and 128 µM
MIC [36]: ≥ 128 µM
MIC [37]: > 64 µM and 128 µM
SMILES: CC[C@H](C)[C@H](NC(=O)[C@H](CCCCN)NC(=O)[C@H](CCCCN)NC(=O)[C@H](Cc1ccccc1)NC(=O)[C@H](CC(C)C)NC(=O)[C@H](CCCCN)NC(=O)[C@H](Cc1c[nH]c2ccccc12)NC(=O)[C@@H](N)CCCCN)C(=O)O [KWKLFKKI]
